Laboratory results taken from ChEMBL document CHEMBL4002640, “Discovery of MK-1832, a Kv1.5 inhibitor with improved selectivity and pharmacokinetics” (Bioorg Med Chem Lett, 2017).
Activity calls are given as the source filed them.

How the values were obtained:
[1] = target: T1, Potassium voltage-gated channel subfamily A member 5 (Homo sapiens, UniProt P22460); experiment: Inhibition of Kv1.5 (unknown origin)
[2] = target: T1, Potassium voltage-gated channel subfamily A member 5; experiment: Inhibition of Kv1.5 mediated ultra-rapid delayed rectifier current Ikur in human atrial myocytes by voltage-patch clamp electrophysiology method; type: cell-based
KCNQ1/KCNE1 (IKs) [3] = target: T2, KCNQ1/KCNE1 (IKs) (Homo sapiens, UniProt P15382+P51787); experiment: Inhibition of human KCNQ1/KCNE1 expressed in HEK293 cells assessed as reduction in slowly activating delayed rectifier cardiac potassium current at 30 uM by patch clamp electrophysiology method; type: cell-based; settings: HEK293 cells expressing human KCNQ1/KCNE1
KCNQ1/KCNE1 (IKs) [4] = target: T2, KCNQ1/KCNE1 (IKs); experiment: Inhibition of human KCNQ1/KCNE1 expressed in HEK293 cells assessed as reduction in slowly activating delayed rectifier cardiac potassium current at 10 uM by patch clamp electrophysiology method; type: cell-based; settings: HEK293 cells expressing human KCNQ1/KCNE1
[5] = target: T3, Voltage-gated inwardly rectifying potassium channel KCNH2 (Homo sapiens, UniProt Q12809); experiment: Inhibition of human ERG expressed in CHOK1 cells assessed as reduction in rapidly activating delayed rectifier cardiac potassium current by whole-cell voltage-patch clamp assay; type: cell-based
[6] = target: T3, Voltage-gated inwardly rectifying potassium channel KCNH2; experiment: Displacement of [3H]-MK499 from human ERG IKr channel expressed in HEK293 cell membranes
[7] = target: T4, A-type voltage-gated potassium channel KCND3 (Homo sapiens, UniProt Q9UK17); experiment: Inhibition of Kv4.3 (unknown origin) assessed as reduction in transient outward potassium current by high throughput clamp method
T4 sequence (Q9UK17 whole entry): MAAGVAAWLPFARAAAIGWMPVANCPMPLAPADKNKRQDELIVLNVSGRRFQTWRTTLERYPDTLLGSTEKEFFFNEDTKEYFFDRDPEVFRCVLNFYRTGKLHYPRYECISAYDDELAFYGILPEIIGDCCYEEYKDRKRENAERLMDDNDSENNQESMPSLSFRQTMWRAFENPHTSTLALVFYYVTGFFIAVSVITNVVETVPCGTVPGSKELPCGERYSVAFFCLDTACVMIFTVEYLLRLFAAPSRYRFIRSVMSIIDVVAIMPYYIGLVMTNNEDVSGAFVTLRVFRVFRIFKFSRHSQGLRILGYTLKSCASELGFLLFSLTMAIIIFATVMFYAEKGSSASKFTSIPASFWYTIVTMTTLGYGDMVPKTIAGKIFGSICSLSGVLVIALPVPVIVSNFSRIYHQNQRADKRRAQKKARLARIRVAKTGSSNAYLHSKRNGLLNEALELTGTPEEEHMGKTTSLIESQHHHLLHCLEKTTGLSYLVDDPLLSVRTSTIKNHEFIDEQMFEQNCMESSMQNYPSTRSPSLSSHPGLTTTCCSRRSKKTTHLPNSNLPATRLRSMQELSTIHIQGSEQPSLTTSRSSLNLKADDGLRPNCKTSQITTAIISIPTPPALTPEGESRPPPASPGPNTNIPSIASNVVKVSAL

[8] = target: Sodium channel protein type 5 subunit alpha (Homo sapiens, UniProt Q14524); experiment: Inhibition of SCN5a (unknown origin) assessed as reduction in sodium current at 10 uM by voltage/ion probe reader method
Homo sapiens = species on record: Homo sapiens; experiment: Substrate activity at human P-gp assessed as efflux ratio
[9] = Metabolic stability in human hepatocytes up to 3 hrs by mass spectrometry; type: ADME, cell-based, Hepatocyte
Canis familiaris [10] = experiment: Anti-atrial fibrillation activity in anesthetized Mongrel dog assessed as increase in atrial refractory period at 400 ms of basic cycle length at 0.3 to 100 ug/kg/min, iv administered as 60 mins infusion measured up to 60 mins by electrophysiology method; type: functional, organism-based; settings: Canis lupus familiaris
Canis familiaris [11] = experiment: Toxicity in anesthetized Mongrel dog assessed as effect on ventricular refractory period at 0.3 to 100 ug/kg/min, iv administered as 60 mins infusion measured up to 60 mins by electrophysiology method; type: organism-based, Canis lupus familiaris; settings: in vivo, 1 h
Canis familiaris [12] = experiment: Toxicity in anesthetized Mongrel dog assessed as effect on heart rate at 0.3 to 100 ug/kg/min, iv administered as 60 mins infusion measured up to 60 mins by electrophysiology method; type: organism-based, Canis lupus familiaris; settings: in vivo, 1 h
Canis familiaris [13] = experiment: Toxicity in anesthetized Mongrel dog assessed as effect on mean arterial pressure at 0.3 to 100 ug/kg/min, iv administered as 60 mins infusion measured up to 60 mins by electrophysiology method; type: organism-based, Canis lupus familiaris; settings: in vivo, 1 h
Canis familiaris [14] = experiment: Toxicity in anesthetized Mongrel dog assessed as effect on ECG at 0.3 to 100 ug/kg/min, iv administered as 60 mins infusion measured up to 60 mins by electrophysiology method; type: organism-based, Canis lupus familiaris; settings: in vivo, 1 h
Canis familiaris [15] = experiment: Toxicity in anesthetized Mongrel dog assessed as effect on PR interval at 0.3 to 100 ug/kg/min, iv administered as 60 mins infusion measured up to 60 mins by electrophysiology method; type: organism-based, Canis lupus familiaris; settings: in vivo, 1 h
Canis familiaris [16] = experiment: Toxicity in anesthetized Mongrel dog assessed as effect on QRS interval at 0.3 to 100 ug/kg/min, iv administered as 60 mins infusion measured up to 60 mins by electrophysiology method; type: organism-based, Canis lupus familiaris; settings: in vivo, 1 h
Canis familiaris [17] = experiment: Toxicity in anesthetized Mongrel dog assessed as effect on QTc interval at 0.3 to 100 ug/kg/min, iv administered as 60 mins infusion measured up to 60 mins by electrophysiology method; type: organism-based, Canis lupus familiaris; settings: in vivo, 1 h
[18] = Terminal half-life in dog; type: ADME, Canis lupus familiaris; settings: in vivo, read-out: beta t1/2 (converted)
[19] = Terminal half-life in rat; type: ADME; settings: in vivo, read-out: beta t1/2 (converted)
[20] = Terminal half-life in rhesus monkey; type: ADME, Macaca mulatta; settings: in vivo, read-out: beta t1/2 (converted)
[21] = Clearance in dog; type: ADME, Canis lupus familiaris; settings: in vivo
[22] = Clearance in rat; type: ADME; settings: in vivo
[23] = Clearance in rhesus monkey; type: ADME, Macaca mulatta; settings: in vivo
[24] = Volume of distribution at steady state in dog; type: ADME, Canis lupus familiaris; settings: in vivo, read-out: Vdss
[25] = Volume of distribution at steady state in rat; type: ADME; settings: in vivo, read-out: Vdss
[26] = Volume of distribution at steady state in rhesus monkey; type: ADME, Macaca mulatta; settings: in vivo, read-out: Vdss
[27] = Protein binding in dog plasma; type: ADME, cell-free, Canis lupus familiaris; settings: read-out: PPB (converted)
[28] = Protein binding in rat plasma; type: ADME, cell-free; settings: read-out: PPB (converted)
[29] = Protein binding in rhesus monkey plasma; type: ADME, cell-free, Macaca mulatta; settings: read-out: PPB (converted)
[30] = Oral bioavailability in dog; type: ADME, organism-based, Canis lupus familiaris; settings: in vivo
[31] = Oral bioavailability in rat; type: ADME, organism-based; settings: in vivo
[32] = Oral bioavailability in rhesus monkey; type: ADME, organism-based, Macaca mulatta; settings: in vivo
Canis familiaris [33] = experiment: Anti-atrial fibrillation activity in iv dosed anesthetized Mongrel dog assessed as increase in atrial refractory period at 400 ms of basic cycle length administered as 60 mins infusion measured up to 60 mins by electrophysiology method; type: functional, Canis lupus familiaris
Canis familiaris [34] = experiment: Effect on ventricular refractory period in iv dosed anesthetized Mongrel dog assessed as threshold change in ventricular refractory period at 400 ms of basic cycle length administered as 60 mins infusion measured up to 60 mins by electrophysiology method; type: ADME, organism-based, Canis lupus familiaris; settings: in vivo, 1 h
[35] = Selectivity index, ratio of IC50 for human KCNQ1/KCNE1 IKs channel expressed in HEK293 cells to IC50 for Kv1.5 IKur channel in human atrial myocytes
Canis familiaris [36] = experiment: Selectivity index, ratio of compound effect for anti-atrial fibrillation activity in iv dosed anesthetized Mongrel dog assessed as increase in atrial refractory period to compound effect on ventricular refractory period in iv dosed anesthetized Mongrel dog; set-up: species or system Canis lupus familiaris

T1 sequence (P22460 whole entry): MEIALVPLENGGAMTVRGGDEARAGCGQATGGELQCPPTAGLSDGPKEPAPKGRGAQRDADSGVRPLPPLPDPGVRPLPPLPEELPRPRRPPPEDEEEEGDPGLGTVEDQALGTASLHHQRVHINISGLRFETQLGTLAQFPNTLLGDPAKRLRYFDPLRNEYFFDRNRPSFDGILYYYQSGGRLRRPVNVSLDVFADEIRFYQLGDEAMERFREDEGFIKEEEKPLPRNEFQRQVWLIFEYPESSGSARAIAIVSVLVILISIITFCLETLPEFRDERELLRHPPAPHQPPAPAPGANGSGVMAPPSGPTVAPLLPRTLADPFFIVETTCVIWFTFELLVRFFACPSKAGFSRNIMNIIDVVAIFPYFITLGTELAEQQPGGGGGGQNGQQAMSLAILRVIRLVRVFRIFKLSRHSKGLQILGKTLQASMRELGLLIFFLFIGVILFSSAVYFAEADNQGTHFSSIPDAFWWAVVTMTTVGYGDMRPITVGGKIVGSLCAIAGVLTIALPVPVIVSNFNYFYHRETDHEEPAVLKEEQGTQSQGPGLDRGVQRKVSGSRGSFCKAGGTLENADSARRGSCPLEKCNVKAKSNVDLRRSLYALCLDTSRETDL
T3 sequence (Q12809 whole entry): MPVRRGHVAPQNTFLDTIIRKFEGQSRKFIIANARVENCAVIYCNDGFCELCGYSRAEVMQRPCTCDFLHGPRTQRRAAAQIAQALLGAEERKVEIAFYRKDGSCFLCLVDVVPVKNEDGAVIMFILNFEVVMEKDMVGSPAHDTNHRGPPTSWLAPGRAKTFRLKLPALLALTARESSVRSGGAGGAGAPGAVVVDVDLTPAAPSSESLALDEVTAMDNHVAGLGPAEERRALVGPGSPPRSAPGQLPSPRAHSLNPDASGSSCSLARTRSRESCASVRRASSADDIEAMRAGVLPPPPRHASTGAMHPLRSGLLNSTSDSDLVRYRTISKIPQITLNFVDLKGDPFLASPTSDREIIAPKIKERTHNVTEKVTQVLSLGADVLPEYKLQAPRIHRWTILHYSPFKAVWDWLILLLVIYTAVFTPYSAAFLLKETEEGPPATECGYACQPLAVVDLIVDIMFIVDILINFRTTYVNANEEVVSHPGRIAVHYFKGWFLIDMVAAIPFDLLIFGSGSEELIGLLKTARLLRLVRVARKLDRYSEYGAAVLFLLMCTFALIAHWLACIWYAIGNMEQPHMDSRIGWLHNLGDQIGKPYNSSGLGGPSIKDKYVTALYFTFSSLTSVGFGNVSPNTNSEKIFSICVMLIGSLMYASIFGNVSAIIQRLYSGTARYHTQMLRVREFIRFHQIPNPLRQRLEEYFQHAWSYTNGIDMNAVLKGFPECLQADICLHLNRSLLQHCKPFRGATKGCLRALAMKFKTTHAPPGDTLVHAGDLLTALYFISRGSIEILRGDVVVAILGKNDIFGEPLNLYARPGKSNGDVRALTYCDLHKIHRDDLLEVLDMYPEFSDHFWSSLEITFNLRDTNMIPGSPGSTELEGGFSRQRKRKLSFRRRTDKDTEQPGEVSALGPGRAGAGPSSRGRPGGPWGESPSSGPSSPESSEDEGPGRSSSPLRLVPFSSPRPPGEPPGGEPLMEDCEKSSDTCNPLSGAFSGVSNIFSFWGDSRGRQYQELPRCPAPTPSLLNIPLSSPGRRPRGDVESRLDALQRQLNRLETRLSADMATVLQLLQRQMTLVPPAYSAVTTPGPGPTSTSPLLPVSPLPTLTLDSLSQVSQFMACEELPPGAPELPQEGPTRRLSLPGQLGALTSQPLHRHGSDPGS
T2 sequence (P51787 whole entry): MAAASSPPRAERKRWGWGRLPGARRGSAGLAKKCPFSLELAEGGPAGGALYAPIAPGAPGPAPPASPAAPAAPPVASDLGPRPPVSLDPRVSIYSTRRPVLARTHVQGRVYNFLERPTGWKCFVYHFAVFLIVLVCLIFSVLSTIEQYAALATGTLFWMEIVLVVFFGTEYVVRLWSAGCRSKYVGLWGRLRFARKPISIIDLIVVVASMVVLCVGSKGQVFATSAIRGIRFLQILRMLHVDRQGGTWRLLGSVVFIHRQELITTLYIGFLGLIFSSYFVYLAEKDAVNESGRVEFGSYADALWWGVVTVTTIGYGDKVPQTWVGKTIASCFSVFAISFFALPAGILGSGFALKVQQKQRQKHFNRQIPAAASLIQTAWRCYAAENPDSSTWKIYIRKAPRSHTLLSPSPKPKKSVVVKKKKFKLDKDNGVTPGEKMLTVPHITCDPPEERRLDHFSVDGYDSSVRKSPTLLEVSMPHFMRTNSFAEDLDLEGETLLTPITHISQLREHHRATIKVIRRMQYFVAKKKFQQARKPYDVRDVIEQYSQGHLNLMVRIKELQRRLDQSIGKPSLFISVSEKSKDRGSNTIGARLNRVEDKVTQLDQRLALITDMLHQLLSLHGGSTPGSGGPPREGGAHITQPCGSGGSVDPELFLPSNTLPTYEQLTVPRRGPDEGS
Chain of Sodium channel protein type 5 subunit alpha (Q14524 whole entry): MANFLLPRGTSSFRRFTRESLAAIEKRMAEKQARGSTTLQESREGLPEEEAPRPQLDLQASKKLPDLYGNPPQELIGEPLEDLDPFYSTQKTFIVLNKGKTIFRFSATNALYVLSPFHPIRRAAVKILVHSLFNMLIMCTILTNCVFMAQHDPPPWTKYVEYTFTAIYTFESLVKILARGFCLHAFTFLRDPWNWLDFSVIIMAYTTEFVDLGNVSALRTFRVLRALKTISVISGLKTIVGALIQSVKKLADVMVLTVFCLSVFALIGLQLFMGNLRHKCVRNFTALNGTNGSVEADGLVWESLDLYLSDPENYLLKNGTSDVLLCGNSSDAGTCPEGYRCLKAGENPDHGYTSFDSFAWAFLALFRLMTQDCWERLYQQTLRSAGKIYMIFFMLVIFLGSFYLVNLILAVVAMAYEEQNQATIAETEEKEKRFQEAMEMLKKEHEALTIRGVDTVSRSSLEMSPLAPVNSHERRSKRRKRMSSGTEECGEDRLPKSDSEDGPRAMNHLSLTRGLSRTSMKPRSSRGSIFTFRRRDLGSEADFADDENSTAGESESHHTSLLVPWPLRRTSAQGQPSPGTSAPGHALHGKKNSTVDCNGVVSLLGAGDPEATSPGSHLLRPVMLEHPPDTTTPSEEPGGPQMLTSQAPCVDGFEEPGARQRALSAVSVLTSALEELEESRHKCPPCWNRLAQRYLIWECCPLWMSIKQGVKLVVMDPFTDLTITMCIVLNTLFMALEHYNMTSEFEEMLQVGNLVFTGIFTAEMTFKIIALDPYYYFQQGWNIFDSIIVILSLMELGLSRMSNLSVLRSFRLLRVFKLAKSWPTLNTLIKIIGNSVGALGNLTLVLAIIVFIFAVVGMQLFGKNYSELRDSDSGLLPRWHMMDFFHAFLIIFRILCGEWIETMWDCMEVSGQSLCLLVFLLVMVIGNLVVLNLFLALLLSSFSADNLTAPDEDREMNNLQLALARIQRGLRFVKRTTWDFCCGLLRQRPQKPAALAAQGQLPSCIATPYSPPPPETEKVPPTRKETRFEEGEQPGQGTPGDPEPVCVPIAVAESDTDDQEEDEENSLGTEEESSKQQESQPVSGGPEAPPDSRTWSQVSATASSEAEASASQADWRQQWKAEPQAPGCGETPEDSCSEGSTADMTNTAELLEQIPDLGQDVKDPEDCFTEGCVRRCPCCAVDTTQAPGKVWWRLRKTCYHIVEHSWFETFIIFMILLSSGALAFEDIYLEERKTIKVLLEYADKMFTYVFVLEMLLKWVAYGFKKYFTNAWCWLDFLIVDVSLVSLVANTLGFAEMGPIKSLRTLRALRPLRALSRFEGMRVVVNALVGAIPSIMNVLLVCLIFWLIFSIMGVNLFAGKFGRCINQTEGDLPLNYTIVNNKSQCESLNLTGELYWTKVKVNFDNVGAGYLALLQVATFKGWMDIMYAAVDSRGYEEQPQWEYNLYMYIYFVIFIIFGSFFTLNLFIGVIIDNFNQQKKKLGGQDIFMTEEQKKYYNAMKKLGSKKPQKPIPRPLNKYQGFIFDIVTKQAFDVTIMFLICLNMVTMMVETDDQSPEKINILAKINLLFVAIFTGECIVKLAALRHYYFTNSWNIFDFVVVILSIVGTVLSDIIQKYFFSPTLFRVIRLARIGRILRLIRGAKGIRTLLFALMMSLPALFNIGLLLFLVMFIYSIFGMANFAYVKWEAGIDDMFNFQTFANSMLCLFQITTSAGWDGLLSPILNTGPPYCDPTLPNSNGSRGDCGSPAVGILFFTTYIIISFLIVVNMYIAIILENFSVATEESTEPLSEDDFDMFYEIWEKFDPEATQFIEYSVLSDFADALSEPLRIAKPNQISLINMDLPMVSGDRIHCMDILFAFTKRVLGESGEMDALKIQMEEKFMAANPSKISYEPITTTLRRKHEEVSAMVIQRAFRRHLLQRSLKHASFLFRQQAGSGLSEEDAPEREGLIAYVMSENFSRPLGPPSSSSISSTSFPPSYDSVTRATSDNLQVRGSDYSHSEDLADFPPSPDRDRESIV

Structure (SMILES): O[C@@H](c1cccnc1-c1cc(Cl)cc(Cl)c1)C(c1cccnc1)c1cccnc1
- IC50 [1]: 0.029 to 2.92 µM
- IC50 [2]: 0.011 µM
- inhibition at 30 µM (KCNQ1/KCNE1 (IKs) [3]): 7%
- inhibition at 10 µM (KCNQ1/KCNE1 (IKs) [4]): 5.7%
- IC50 [5]: 128 µM
- IC50 [6]: > 30 µM
- IC50 [7]: 8.3 µM
- inhibition (INH) [8]: Not Active
- Ratio (Homo sapiens): 30
- Stability [9]: Unstable
- Activity (Canis familiaris [10]): Active
- Activity (Canis familiaris [11]): Non-Toxic
- Activity (Canis familiaris [12]): Non-Toxic
- Activity (Canis familiaris [13]): Non-Toxic
- Activity (Canis familiaris [14]): Non-Toxic
- Activity (Canis familiaris [15]): Non-Toxic
- Activity (Canis familiaris [16]): Non-Toxic
- Activity (Canis familiaris [17]): Non-Toxic
- half-life [18]: 2.6 h
- half-life [19]: 1.6 h
- half-life [20]: 1 h
- clearance [21]: 3.7 mL/min/kg
- clearance [22]: 16.7 mL/min/kg
- clearance [23]: 14.3 mL/min/kg
- Vd [24]: 0.81 L/kg
- Vd [25]: 1.59 L/kg
- Vd [26]: 0.99 L/kg
- fraction unbound [27]: 0.16
- fraction unbound [28]: 0.21
- fraction unbound [29]: 0.08
- bioavailability [30]: 93%
- bioavailability [31]: 34%
- bioavailability [32]: 21%
- EC10 (Canis familiaris [33]): 0.014 µM
- Activity (Canis familiaris [34]): > 25 µM
- Ratio IC50 [35]: >3000
- Selectivity Index (Canis familiaris [36]): >1800
